# Where “and” joins values, the source holds several entries; their conditions need not be identical. Equal entries are not always repeated.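 Assay format: 96-well plates, 48-hour exposure. GI50: concentration for 50% inhibition of growth. TGI marks complete inhibition of growth.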
# Key:
# Test in all cases: DTP human tumour cell line panel, 48 h
# ACHN renal = tested on: ACHN renal
# HCC-2998 colon = tested on: HCC-2998 colon
# MDA-MB-231 breast = tested on: MDA-MB-231 breast
# NCI-H522 lung = tested on: NCI-H522 lung
# NCI/ADR-RES ovarian = tested on: NCI/ADR-RES ovarian
# OVCAR-4 ovarian = tested on: OVCAR-4 ovarian
# OVCAR-5 ovarian = tested on: OVCAR-5 ovarian
# OVCAR-8 ovarian = tested on: OVCAR-8 ovarian
# SF-295 CNS = tested on: SF-295 CNS
# UACC-257 melanoma = tested on: UACC-257 melanoma
SMILES,GI50 (ACHN renal),TGI (ACHN renal),GI50 (HCC-2998 colon),TGI (HCC-2998 colon),GI50 (MDA-MB-231 breast),TGI (MDA-MB-231 breast),GI50 (NCI-H522 lung),TGI (NCI-H522 lung),GI50 (NCI/ADR-RES ovarian),TGI (NCI/ADR-RES ovarian),GI50 (OVCAR-4 ovarian),TGI (OVCAR-4 ovarian),GI50 (OVCAR-5 ovarian),TGI (OVCAR-5 ovarian),GI50 (OVCAR-8 ovarian),TGI (OVCAR-8 ovarian),GI50 (SF-295 CNS),TGI (SF-295 CNS),GI50 (UACC-257 melanoma),TGI (UACC-257 melanoma)
OC(COc1cccc2ccccc12)CN1CCN(c2ccccc2)CC1 (stereo not drawn),16.2 µM,30.6 µM,16.5 µM,30.7 µM,15.8 µM,31.8 µM,14.4 µM,29.2 µM,15.4 µM,30.4 µM,14.1 µM,27.6 µM,16.4 µM,30.8 µM,17.3 µM,32.1 µM,12.6 µM,26.6 µM,16 µM,30.1 µM
CN(C)CCCNc1nccc(-c2c(-c3ccc(F)cc3)nn3cc(C(F)(F)F)ccc23)n1,10.3 µM,> 25 µM,4.54 µM,15 µM,3.83 µM,11.1 µM,6.77 µM,> 25 µM,8.48 µM,> 25 µM,11 µM,> 25 µM,11.2 µM,> 25 µM,> 20.1 µM,> 25 µM,6.91 µM,> 17.2 µM,4.22 µM,8.42 µM
CC[CH2][Sn]([Cl])([Cl])[CH2]CC,6.88 µM,20 µM,10.1 µM,22 µM,5.16 µM,18.9 µM,0.354 µM,1.62 µM,15.8 µM,30.7 µM,12.9 µM,25.6 µM,16.6 µM,31 µM,14.7 µM,30.1 µM,17.2 µM,33.4 µM,4.59 µM,19.2 µM
CCCN(CCC)CCCNC(=O)c1cc2c(-c3ccc(OC)c(OC)c3)nn(C)c2s1,17.2 µM,39.5 µM,18.8 µM,37.7 µM,18.8 µM,41.3 µM,16.6 µM,41.3 µM,33.4 µM,> 100 µM,23.5 µM,> 100 µM,50.4 µM,> 100 µM,36.9 µM,> 100 µM,21.6 µM,49.4 µM,17.3 µM,34.4 µM
COC(=O)Nc1nc2cc3c(cc2s1)OCCO3,> 50 µM,> 50 µM,> 50 µM,> 50 µM,> 50 µM,> 50 µM,> 50 µM,> 50 µM,> 50 µM,> 50 µM,> 50 µM,> 50 µM,> 50 µM,> 50 µM,> 50 µM,> 50 µM,> 50 µM,> 50 µM,> 50 µM,> 50 µM
CNc1ccc(-c2cc(=O)oc3ccc(Cl)cc23)cc1,0.104 µM and 0.0558 µM,> 100 µM,0.373 µM and 0.127 µM,17.1 µM,1.07 µM and 0.424 µM,> 100 µM,0.03 µM,0.311 µM,0.0371 µM and 0.0363 µM,,,> 100 µM,0.795 µM and 0.457 µM,> 100 µM,0.601 µM and 0.197 µM,> 100 µM,0.0479 µM and 0.0322 µM,> 100 µM,> 100 µM,> 100 µM
O=C(CCCc1ccccn1)c1ccccc1,,> 100 µM,,> 100 µM,,> 100 µM,,> 100 µM,,> 100 µM,,> 100 µM,,> 100 µM,,> 100 µM,,> 100 µM,,> 100 µM
C=CCN(/C=C1\C(=O)O[C@H](COC)[C@@]2(C)C1=C(O)C(=O)C1=C2[C@H](OC(C)=O)C[C@]2(C)C(=O)CC[C@@H]12)CC=C,2.74 µM and 0.449 µM,20 µM and > 100 µM,0.487 µM and 0.207 µM,8.12 µM and 4.94 µM,13.2 µM and 3.32 µM,20 µM and > 100 µM,6.46 µM and 2.87 µM,20 µM and 22.2 µM,5.76 µM and 2.34 µM,20 µM and > 100 µM,2.97 µM and 2.58 µM,20 µM and > 100 µM,2.34 µM and 0.737 µM,20 µM and 76.4 µM,10.2 µM and 3.09 µM,20 µM and > 100 µM,0.0935 µM and 0.205 µM,4.82 µM and 9.89 µM,9.18 µM and 2.26 µM,20 µM and > 100 µM
COc1ccc(/C=C/c2cc(N3CCOCC3)c3cc(F)c(F)cc3n2)cc1OC,0.615 µM,12.4 µM,0.876 µM,4.21 µM,0.483 µM,4.66 µM,0.454 µM,2.72 µM,0.432 µM,3.03 µM,0.253 µM,2.04 µM,2.01 µM,11.9 µM,0.55 µM,3.23 µM,0.653 µM,14.9 µM,2.39 µM,9.89 µM
O=C(c1cccs1)c1c(C(F)(F)F)n([O-])c2ccc(F)cc2[n+]1=O,1.5 µM,2.82 µM,0.8 µM,1.98 µM,1.5 µM,3.1 µM,1.46 µM,2.88 µM,2.36 µM,6.33 µM,1.41 µM,2.75 µM,1.76 µM,3.21 µM,0.528 µM,1.34 µM,1.76 µM,3.58 µM,1.53 µM,2.91 µM
C=C(C)[C@@H]1CCC2=C[C@@H](OC2=O)[C@@H](C(=C)C)C(=O)/C=C(/C)C(=O)C1,37.3 µM,> 100 µM,26.2 µM,62.2 µM,45.2 µM,> 100 µM,34.4 µM,> 100 µM,37 µM,> 100 µM,71.6 µM,> 100 µM,70.6 µM,> 100 µM,49 µM,> 100 µM,35.9 µM,> 100 µM,58.3 µM,> 100 µM
CCN(CC)C(=S)SC1CCOP(=O)(N(CCCl)CCCl)N1C (stereo not drawn),,> 67.5 µM,,> 68.7 µM,,> 100 µM,,2.18 µM,,> 100 µM,,46.4 µM,,> 100 µM,,49.2 µM,,> 100 µM,,> 56.1 µM
Cc1cc(-c2nc(-c3ccc(OC(F)(F)F)cc3)no2)nn1Cc1ccnc(N2CCN(C3CC3)CC2)c1,3.1 µM,> 100 µM,7.05 µM,24.5 µM,12.6 µM,> 78.7 µM,2.68 µM,58.1 µM,0.726 µM,> 100 µM,< 0.01 µM,> 100 µM,> 37.5 µM,> 100 µM,> 44.4 µM,> 100 µM,< 0.01 µM,> 100 µM,2.84 µM,> 55.4 µM
